Assay results published in the supplement of paper PMC10307832.

Tests used:
Assay in all cases: relative viability (nuclei count vs DMSO), 5 days (fraction); higher = more cells survive
[1] = compound: CC(O)(CS(=O)(=O)c1ccc(F)cc1)C(=O)Nc1ccc(C#N)c(C(F)(F)F)c1 [Bicalutamide] + Cc1cc(Nc2cc(N3CCN(C)CC3)nc(Sc3ccc(NC(=O)C4CC4)cc3)n2)n[nH]1 [Tozasertib] (partner 0.1 µM)
Method in brief: (§1)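 Nuclei were stained with Hoechst during a one-step fixation (final 0.05% Triton X-100, 1% formaldehyde, 1 ug/ml Hoechst) carried out 5 days after dosing, then counted on 4× images. The cells, lung cancer lines in 1536-well plates, had been dosed by pin tool the day after seeding with one drug alone or a fixed anchor-drug dose plus five library-drug doses (not always all listed) in √10 steps. Relative viability is the nuclei count in treated wells divided by that in vehicle wells, and each value is the median of duplicate plates.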

[2] = compound: C(C(=O)C(=O)O)Br [Bromopyruvate] + O=C(CCCCCCC(=O)Nc1ccccc1)NO [Vorinostat] (partner 1 µM)
Method in brief: as §1

Bicalutamide + Olaparib = compound: CC(O)(CS(=O)(=O)c1ccc(F)cc1)C(=O)Nc1ccc(C#N)c(C(F)(F)F)c1 [Bicalutamide] + O=C(c1cc(Cc2n[nH]c(=O)c3ccccc23)ccc1F)N1CCN(C(=O)C2CC2)CC1 [Olaparib] (partner 8 µM)
Method in brief: as §1

[3] = compound: CC(O)(CS(=O)(=O)c1ccc(F)cc1)C(=O)Nc1ccc(C#N)c(C(F)(F)F)c1 [Bicalutamide] + CCNC(=O)c1noc(-c2cc(C(C)C)c(O)cc2O)c1-c1ccc(CN2CCOCC2)cc1 [Luminespib] (partner 0.01 µM)
Method in brief: as §1

For SK-LU-1, the relative viability ([1]; first compound 0.08 µM) was 0.341, the relative viability ([1]; first compound 0.253 µM) was 0.291 and the relative viability ([1]; first compound 0.8 µM) was 0.295. It also gave a relative viability ([1]; first compound 2.53 µM) of 0.319, a relative viability ([2]; first compound 1 µM) of 0.744 and a relative viability ([2]; first compound 3.162 µM) of 0.81. It also gave a relative viability ([2]; first compound 10 µM) of 0.728, a relative viability ([2]; first compound 31.62 µM) of 0.632 and a relative viability ([2]; first compound 100 µM) of 0.713. The relative viability (Bicalutamide + Olaparib; first compound 0.08 µM) was 0.502, the relative viability (Bicalutamide + Olaparib; first compound 0.253 µM) was 0.482 and the relative viability (Bicalutamide + Olaparib; first compound 0.8 µM) was 0.633. The relative viability (Bicalutamide + Olaparib; first compound 2.53 µM) was 0.486, the relative viability ([3]; first compound 0.08 µM) was 0.189 and the relative viability ([3]; first compound 0.253 µM) was 0.188. The relative viability ([3]; first compound 0.8 µM) was 0.217 and the relative viability ([3]; first compound 2.53 µM) was 0.188.
For NCI-H1650, the relative viability ([1]; first compound 0.08 µM) was 0.501, the relative viability ([1]; first compound 0.253 µM) was 0.395 and the relative viability ([1]; first compound 0.8 µM) was 0.341. It also gave a relative viability ([1]; first compound 2.53 µM) of 0.388, a relative viability ([2]; first compound 1 µM) of 0.549 and a relative viability ([2]; first compound 3.162 µM) of 0.388. It also gave a relative viability ([2]; first compound 10 µM) of 0.505, a relative viability ([2]; first compound 31.62 µM) of 0.54 and a relative viability ([2]; first compound 100 µM) of 0.304. It also gave a relative viability (Bicalutamide + Olaparib; first compound 0.08 µM) of 0.989, a relative viability (Bicalutamide + Olaparib; first compound 0.253 µM) of 0.759 and a relative viability (Bicalutamide + Olaparib; first compound 0.8 µM) of 0.899. For the same cell line, the relative viability (Bicalutamide + Olaparib; first compound 2.53 µM) was 0.723, the relative viability ([3]; first compound 0.08 µM) was 0.181 and the relative viability ([3]; first compound 0.253 µM) was 0.165. For the same cell line, the relative viability ([3]; first compound 0.8 µM) was 0.171 and the relative viability ([3]; first compound 2.53 µM) was 0.196.
With BEN the relative viability ([1]; first compound 0.08 µM) was 0.475, the relative viability ([1]; first compound 0.253 µM) was 0.533 and the relative viability ([1]; first compound 0.8 µM) was 0.527. The relative viability ([1]; first compound 2.53 µM) was 0.487, the relative viability ([2]; first compound 1 µM) was 0.588 and the relative viability ([2]; first compound 3.162 µM) was 0.581. It also gave a relative viability ([2]; first compound 10 µM) of 0.485, a relative viability ([2]; first compound 31.62 µM) of 0.608 and a relative viability ([2]; first compound 100 µM) of 0.411. The relative viability (Bicalutamide + Olaparib; first compound 0.08 µM) was 1.1, the relative viability (Bicalutamide + Olaparib; first compound 0.253 µM) was 1.15 and the relative viability (Bicalutamide + Olaparib; first compound 0.8 µM) was 1.26. The relative viability (Bicalutamide + Olaparib; first compound 2.53 µM) was 1.06, the relative viability ([3]; first compound 0.08 µM) was 0.416 and the relative viability ([3]; first compound 0.253 µM) was 0.344. It also gave a relative viability ([3]; first compound 0.8 µM) of 0.541 and a relative viability ([3]; first compound 2.53 µM) of 0.39.
In the case of EMC-BAC-2, the relative viability ([1]; first compound 0.08 µM) is reported as 0.346, the relative viability ([1]; first compound 0.253 µM) is reported as 0.285 and the relative viability ([1]; first compound 0.8 µM) is reported as 0.289. The relative viability ([1]; first compound 2.53 µM) was 0.249, the relative viability ([2]; first compound 1 µM) was 0.719 and the relative viability ([2]; first compound 3.162 µM) was 0.336. The relative viability ([2]; first compound 10 µM) was 0.277, the relative viability ([2]; first compound 100 µM) was 0.389 and the relative viability (Bicalutamide + Olaparib; first compound 0.08 µM) was 0.528. The relative viability (Bicalutamide + Olaparib; first compound 0.253 µM) was 0.462, the relative viability (Bicalutamide + Olaparib; first compound 0.8 µM) was 0.494 and the relative viability (Bicalutamide + Olaparib; first compound 2.53 µM) was 0.397. It also gave a relative viability ([3]; first compound 0.08 µM) of 1.13, a relative viability ([3]; first compound 0.253 µM) of 1.14 and a relative viability ([3]; first compound 0.8 µM) of 1.17. The relative viability ([3]; first compound 2.53 µM) was 1.06.
LU99A gave a relative viability ([1]; first compound 0.08 µM) of 0.279, a relative viability ([1]; first compound 0.253 µM) of 0.238 and a relative viability ([1]; first compound 0.8 µM) of 0.297. It also gave a relative viability ([1]; first compound 2.53 µM) of 0.226, a relative viability ([2]; first compound 1 µM) of 0.46 and a relative viability ([2]; first compound 3.162 µM) of 0.526. It also gave a relative viability ([2]; first compound 10 µM) of 0.567, a relative viability ([2]; first compound 31.62 µM) of 0.532 and a relative viability ([2]; first compound 100 µM) of 0.409. It also gave a relative viability (Bicalutamide + Olaparib; first compound 0.08 µM) of 0.268, a relative viability (Bicalutamide + Olaparib; first compound 0.253 µM) of 0.225 and a relative viability (Bicalutamide + Olaparib; first compound 0.8 µM) of 0.259. It also gave a relative viability (Bicalutamide + Olaparib; first compound 2.53 µM) of 0.248, a relative viability ([3]; first compound 0.08 µM) of 0.268 and a relative viability ([3]; first compound 0.253 µM) of 0.236. For the same cell line, the relative viability ([3]; first compound 0.8 µM) was 0.286 and the relative viability ([3]; first compound 2.53 µM) was 0.205.
For ABC-1, the relative viability ([1]; first compound 0.08 µM) was 0.179, the relative viability ([1]; first compound 0.253 µM) was 0.168 and the relative viability ([1]; first compound 0.8 µM) was 0.17. It also gave a relative viability ([1]; first compound 2.53 µM) of 0.167, a relative viability ([2]; first compound 1 µM) of 1.27 and a relative viability ([2]; first compound 100 µM) of 0.612. The relative viability (Bicalutamide + Olaparib; first compound 0.08 µM) was 0.815, the relative viability (Bicalutamide + Olaparib; first compound 0.253 µM) was 0.975 and the relative viability (Bicalutamide + Olaparib; first compound 0.8 µM) was 1.21. The relative viability (Bicalutamide + Olaparib; first compound 2.53 µM) was 1.01, the relative viability ([3]; first compound 0.08 µM) was 0.558 and the relative viability ([3]; first compound 0.253 µM) was 0.296. For the same cell line, the relative viability ([3]; first compound 0.8 µM) was 0.749 and the relative viability ([3]; first compound 2.53 µM) was 0.596.
For NCI-H2170, the relative viability ([1]; first compound 0.08 µM) was 0.728, the relative viability ([1]; first compound 0.253 µM) was 0.696 and the relative viability ([1]; first compound 0.8 µM) was 0.716. It also gave a relative viability ([1]; first compound 2.53 µM) of 0.739, a relative viability ([2]; first compound 1 µM) of 0.911 and a relative viability ([2]; first compound 3.162 µM) of 0.853. For the same cell line, the relative viability ([2]; first compound 10 µM) was 0.79, the relative viability ([2]; first compound 31.62 µM) was 0.802 and the relative viability ([2]; first compound 100 µM) was 0.705. For the same cell line, the relative viability (Bicalutamide + Olaparib; first compound 0.08 µM) was 0.612, the relative viability (Bicalutamide + Olaparib; first compound 0.253 µM) was 0.572 and the relative viability (Bicalutamide + Olaparib; first compound 0.8 µM) was 0.536. It also gave a relative viability (Bicalutamide + Olaparib; first compound 2.53 µM) of 0.645, a relative viability ([3]; first compound 0.08 µM) of 0.689 and a relative viability ([3]; first compound 0.253 µM) of 0.527. It also gave a relative viability ([3]; first compound 0.8 µM) of 0.588 and a relative viability ([3]; first compound 2.53 µM) of 0.591.
NCI-H1299 showed a relative viability (Bicalutamide + Olaparib; first compound 0.08 µM) of 0.993, a relative viability (Bicalutamide + Olaparib; first compound 0.253 µM) of 0.942 and a relative viability (Bicalutamide + Olaparib; first compound 0.8 µM) of 0.974. It also gave a relative viability (Bicalutamide + Olaparib; first compound 2.53 µM) of 0.864.
EBC-1 showed a relative viability (Bicalutamide + Olaparib; first compound 0.08 µM) of 0.707, a relative viability (Bicalutamide + Olaparib; first compound 0.253 µM) of 0.638 and a relative viability (Bicalutamide + Olaparib; first compound 0.8 µM) of 0.746. For the same cell line, the relative viability (Bicalutamide + Olaparib; first compound 2.53 µM) was 0.654.
